Here are results for 13 molecules from article PMC11345769, “(SiFA)SeFe: A Hydrophilic Silicon-Based Fluoride Acceptor Enabling Versatile Peptidic Radiohybrid Tracers” (Journal of medicinal chemistry, 2024).

Data set [1] is described as follows: stability of 18F-labeled model bioconjugates, physiological conditions. It is filed as physicochemical. The following applies: buffer, pH 7.4. The protocol:
To a solution of 90 μL aqueous K2CO3 buffer (pH 7.4) were added 10 μL of the respective ^18F-labeled (SiFA)SeFe-bioconjugate. The solution was kept at 37 °C and for each time point (0, 30, 60, 90, 120 min) 10 μL were analyzed via Radio-TLC. The half-life was calculated from the ratio between free fluorine-18 and labeled peptide.

The nature of data set [2]: stability of 18F-labeled model bioconjugates, lutetium labeling conditions. It is filed as physicochemical. The note with it: buffer, pH 5.5. The method, then: To a solution of 10 μL aqueous sodium acetate buffer (pH 5.5) and 80 μL 0.04 M HCl were added 10 μL of the respective ^18F-labeled (SiFA)SeFe-bioconjugate. The solution was kept at 90 °C and for each time point (0, 30, 60, 90, 120 min) 10 μL were analyzed via Radio-TLC. The half-life was calculated from the ratio between free fluorine-18 and labeled peptide.

The nature of data set [3]: stability of 18F-labeled model bioconjugates, reverse isotopic exchange. The following applies: buffer, pH 6.5. It is filed as physicochemical. The protocol:
To 10 μL of the respective ^18F-labeled (SiFA)SeFe-bioconjugate, a solution of 10 μL 10 mM NaF (pH = 6.5) and 80 μL H2O was added. The solution was kept at RT and for each time point (0, 30, 60, 90, 120 min) 10 μL was analyzed via Radio-TLC. The half-life was calculated from the ratio between free fluorine-18 and labeled peptide.

A further data set has as its target T1, human serum albumin (Homo sapiens, UniProt P02768).
T1 construct: purchased Daicel, Tokio, Japan Chiralpak HSA column (50 × 3 mm, 5 μm, H13 h-2433)
Put plainly: human serum albumin binding by HPAC. It is filed as in vitro ADME. The note with it: non-radiolabeled compounds, n=1. The protocol:
High performance affinity chromatography (HPAC) was used to determine representative values for HSA binding of the ligands and their references, since it can influence the distribution and pharmacokinetics of radiopharmaceuticals.[43],[44]
HSA binding studies were performed according to a previously published procedure, using RP-HPLC and HSA which is solid-phase fixed on a Chiralpak HSA column (50 × 3 mm, 5 μm, H13 h-2433, Daicel, Tokio, Japan).[51] A flow rate of 0.5 mL/min at RT was used. A freshly prepared 50 mM aqueous solution of NH4OAc (pH 6.9) was used as mobile phase A, and isopropanol (HPLC grade, VWR, Germany) was used as mobile phase B. A gradient of 100% A (0 to 3 min) followed by 80% A (3 to 40 min) was used for the experiments. Before the analysis of all compounds, the column was calibrated with nine reference substances having HSA binding known from the literature in the range of 13 to 99%.[51],[52] All compounds, were prepared in a 1/1 mixture (v/v) of isopropanol and a 50 mM aqueous solution of NH4OAc (pH 6.9) at a final concentration of 0.5 mg/mL. Nonlinear regression was performed using OriginPro 2016G software (North-ampton, United States).

Where [4] appears, read: physiological conditions, 18F-labeled, Radio-TLC, read-out: Half-life, pH 7.4, 37 °C.
Where [5] appears, read: lutetium labeling conditions, 18F-labeled, Radio-TLC, read-out: Half-life, pH 5.5, 90 °C (converted).
Where [6] appears, read: reverse isotopic exchange, 18F-labeled, Radio-TLC, read-out: Half-life, pH 6.5, 1 mM aq. NaF, RT.

T1 sequence (P02768 25-609): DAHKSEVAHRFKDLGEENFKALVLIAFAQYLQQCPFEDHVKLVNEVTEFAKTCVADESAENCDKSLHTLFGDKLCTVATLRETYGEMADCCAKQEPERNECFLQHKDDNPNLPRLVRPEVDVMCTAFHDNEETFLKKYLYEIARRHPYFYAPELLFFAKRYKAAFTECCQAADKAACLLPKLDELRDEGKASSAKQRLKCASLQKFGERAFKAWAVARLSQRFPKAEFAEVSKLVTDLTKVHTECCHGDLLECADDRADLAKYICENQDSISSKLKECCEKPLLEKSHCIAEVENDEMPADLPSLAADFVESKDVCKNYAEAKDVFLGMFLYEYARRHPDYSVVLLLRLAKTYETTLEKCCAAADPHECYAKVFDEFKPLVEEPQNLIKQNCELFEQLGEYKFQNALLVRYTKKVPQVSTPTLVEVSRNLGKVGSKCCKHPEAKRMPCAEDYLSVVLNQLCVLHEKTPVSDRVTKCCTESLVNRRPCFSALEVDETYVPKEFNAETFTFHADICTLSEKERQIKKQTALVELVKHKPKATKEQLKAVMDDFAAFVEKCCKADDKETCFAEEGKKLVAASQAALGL

By half-life is commonly meant the time in which the quantity being followed falls by half. Take `CC(C)(C)[Si](F)(c1cc(CN)cc(C(=O)NCC(=O)N[C@@H](CCCCN)C(=O)O)c1)C(C)(C)C` [1X1, (3-(aminomethyl)-5-(di-tert-butylfluorosilyl)benzoyl)glycyl-L-lysine]: the results for the half-life in data set [1], in data set [2] and in data set [3] were 27 ± 2.1 min, 38 ± 0.9 h and 10 ± 1.1 min, respectively.
On the same counts, the results for `CC(C)(C)[Si](F)(c1cc(CN)cc(C(=O)NCC(=O)N[C@@H](CC(=O)O)C(=O)O)c1)C(C)(C)C` [1X2, (3-(aminomethyl)-5-(di-tert-butylfluorosilyl)benzoyl)glycyl-L-as-partic acid] are 299 ± 12 min, 37 ± 11 h and 25 ± 6.1 min.
For the molecule `CC(C)(C)[Si](F)(c1cc(CN)cc(C(=O)NCC(=O)N[C@@H](Cc2ccc(O)cc2)C(=O)O)c1)C(C)(C)C` [1X3, (3-(aminomethyl)-5-(di-tert-butylfluorosilyl)benzoyl)glycyl-L-tyrosine], the half-life in data set [1] was 14 ± 3 min; in data set [2], 43 ± 2.8 h; in data set [3], 27 ± 2.2 min.
Turning to `CC(C)(C)[Si](F)(c1cc(CNC(=O)[C@@H](N)CCCCN)cc(C(=O)NCC(=O)N[C@@H](CCCCN)C(=O)O)c1)C(C)(C)C` [2X1, (3-(di-tert-butylfluorosilyl)-5-(((S)-2,6-diaminohexanamido)-methyl)benzoyl)glycyl-L-lysine], the figures for the half-life in data set [1] (setting [4]), in data set [2] (setting [5]) and in data set [3] (setting [6]) were 18 ± 2.1 min, 25 ± 5.5 h and 14 ± 0.8 min, respectively.
`CC(C)(C)[Si](F)(c1cc(CNC(=O)[C@@H](N)CCCCN)cc(C(=O)NCC(=O)N[C@@H](CC(=O)O)C(=O)O)c1)C(C)(C)C` [2X2, (3-(di-tert-butylfluorosilyl)-5-(((S)-2,6-diaminohexanamido)-methyl)benzoyl)glycyl-L-aspartic acid]: the figures for the half-life in data set [1] (setting [4]), in data set [2] (setting [5]) and in data set [3] (setting [6]) were 43 ± 1.3 min, 49 ± 7.1 h and 29 ± 0.8 min, respectively.
On the same counts, the results for `CC(C)(C)[Si](F)(c1cc(CNC(=O)[C@@H](N)CCCCN)cc(C(=O)NCC(=O)N[C@@H](Cc2ccc(O)cc2)C(=O)O)c1)C(C)(C)C` [2X3, (3-(di-tert-butylfluorosilyl)-5-(((S)-2,6-diaminohexanamido)-methyl)benzoyl)glycyl-L-tyrosine] are 21 ± 6 min, 48 ± 13 h and 20 ± 2.9 min.
`CC(C)(C)[Si](F)(c1cc(CNC(=O)[C@@H](N)CCC(=O)O)cc(C(=O)NCC(=O)N[C@@H](CCCCN)C(=O)O)c1)C(C)(C)C` [3X1, (3-(((S)-2-amino-4-carboxybutanamido)methyl)-5-(di-tert-butylfluorosilyl)benzoyl)glycyl-L-lysine]: the values for the half-life in data set [1] (setting [4]), in data set [2] (setting [5]) and in data set [3] (setting [6]) were 57 ± 1.3 min, 40 ± 0.6 h and 34 ± 2.1 min, respectively.
With `CC(C)(C)[Si](F)(c1cc(CNC(=O)[C@@H](N)CCC(=O)O)cc(C(=O)NCC(=O)N[C@@H](CC(=O)O)C(=O)O)c1)C(C)(C)C` [3X2, (3-(((S)-2-amino-4-carboxybutanamido)methyl)-5-(di-tert-butylfluorosilyl)benzoyl)glycyl-L-aspartic acid], the half-life was 597 ± 43 min in data set [1] (setting [4]), 59 ± 5.2 h in data set [2] (setting [5]) and 90 ± 3.6 min in data set [3] (setting [6]).
For `CC(C)(C)[Si](F)(c1cc(CNC(=O)[C@@H](N)CCC(=O)O)cc(C(=O)NCC(=O)N[C@@H](Cc2ccc(O)cc2)C(=O)O)c1)C(C)(C)C` [3X3, (S)-4-amino-5-((3-((2-(((S)-1-carboxy-2-(4-hydroxyphenyl)-ethyl)amino)-2-oxoethyl)carbamoyl)-5-(di-tert-butylfluorosilyl)-benzyl)amino)-5-oxopentanoic acid], the results for the half-life in data set [1] (setting [4]), in data set [2] (setting [5]) and in data set [3] (setting [6]) were 29 ± 0.8 min, 42 ± 7.8 h and 57 ± 1.6 min, respectively.
As for `CC(=O)N[C@@H]1[C@@H](O)[C@H](O)[C@@H](CO)O[C@H]1NC(=O)C[C@H](NC(=O)CON=CCCC[N+](C)(C)Cc1ccc([Si](F)(C(C)(C)C)C(C)(C)C)cc1)C(=O)N[C@@H](CC(=O)O)C(=O)N[C@@H](CC(=O)O)C(=O)NCCOCCOCC(=O)N[C@H](Cc1ccccc1)C(=O)N[C@H]1CSSC[C@@H](C(=O)N[C@H](C(=O)O)[C@@H](C)O)NC(=O)[C@H]([C@@H](C)O)NC(=O)[C@H](CCCCN)NC(=O)[C@@H](Cc2c[nH]c3ccccc23)NC(=O)[C@H](Cc2ccc(O)cc2)NC1=O` [SiFAlin-TATE, reference compound], the “HSA binding (HPAC)” value on human serum albumin was 92%.
As for `C[C@@H](O)[C@H](NC(=O)[C@@H]1CSSC[C@H](NC(=O)[C@@H](Cc2ccccc2)NC(=O)CN2CCN(CC(=O)O)CCN(CC(=O)NC[C@@H](NC(=O)c3cc(CN)cc([Si](F)(C(C)(C)C)C(C)(C)C)c3)C(=O)O)CCN(CC(=O)O)CC2)C(=O)N[C@@H](Cc2ccc(O)cc2)C(=O)N[C@H](Cc2c[nH]c3ccccc23)C(=O)N[C@@H](CCCCN)C(=O)N[C@@H]([C@@H](C)O)C(=O)N1)C(=O)O` [[natGa]Ga-(SiFA)SeFe-rhTATE1, metal not drawn], the figures for the “HSA binding (HPAC)” value at human serum albumin and at human serum albumin (listed as [^natGa]Ga-(SiFA)SeFe-rhTATE1) were 99% and 98−99%, respectively.
For the molecule `C[C@@H](O)[C@H](NC(=O)[C@@H]1CSSC[C@H](NC(=O)[C@@H](Cc2ccccc2)NC(=O)CN2CCN(CC(=O)O)CCN(CC(=O)NC[C@@H](NC(=O)c3cc(CNC(=O)C[C@@H](N)C(=O)O)cc([Si](F)(C(C)(C)C)C(C)(C)C)c3)C(=O)O)CCN(CC(=O)O)CC2)C(=O)N[C@@H](Cc2ccc(O)cc2)C(=O)N[C@H](Cc2c[nH]c3ccccc23)C(=O)N[C@@H](CCCCN)C(=O)N[C@@H]([C@@H](C)O)C(=O)N1)C(=O)O` [[natGa]Ga-(SiFA)SeFe-rhTATE2, metal not drawn], the “HSA binding (HPAC)” value at human serum albumin was 99%; at human serum albumin (listed as [^natGa]Ga-(SiFA)SeFe-rhTATE2), 98−99%.
On to `C[C@@H](O)[C@H](NC(=O)[C@@H]1CSSC[C@H](NC(=O)[C@@H](Cc2ccccc2)NC(=O)COCCOCCNC(=O)[C@@H](CNC(=O)CN2CCN(CC(=O)O)CCN(CC(=O)O)CCN(CC(=O)O)CC2)NC(=O)COCCOCCNC(=O)c2cc(CN)cc([Si](F)(C(C)(C)C)C(C)(C)C)c2)C(=O)N[C@@H](Cc2ccc(O)cc2)C(=O)N[C@H](Cc2c[nH]c3ccccc23)C(=O)N[C@@H](CCCCN)C(=O)N[C@@H]([C@@H](C)O)C(=O)N1)C(=O)O` [[natLu]Lu-(SiFA)SeFe-rhTATE3, metal not drawn], for which the “HSA binding (HPAC)” value at human serum albumin was 98%; at human serum albumin (listed as [^natLu]Lu-(SiFA)SeFe-rhTATE3), 98−99%.
